Source: patent publication US20220062262A1, “GSNO REDUCTASE INHIBITOR AS AN ADJUNCT THERAPY WITH REMOTE ISCHEMIC CONDITIONING AND THROMBOLYTIC REPERFUSION THERAPIES IN STROKE” (KING ABDULAZIZ UNIVERSITY, priority 2020, published 2022)

Key:
[1] = tested on: tMCAo stroke in STZ-induced diabetic mice; experiment: Reperfused tMCAo stroke model in STZ-induced diabetic male mice, with or without RIC therapy; type: in vivo; settings: for brain tissue oxygenation (PbtO2): 6 h post-reperfusion; for % infarct volume / % swelling / mean NDS: 24 h post-stroke
Description: The tMCAo surgical procedure is similar to TE-stroke surgery, however, the transient occlusion is achieved using a suture instead of a clot as reported by Hoda et al (supra). Briefly, a 6-0 monofilament suture with ˜3-mm silicone-coated tip designed to induce tMCAo in mice (Doccol Corp, USA) was introduced into the ICA via an ECA stump, directed and gently advanced into the MCA region until the suture was wedged to occlude the proximal stem of MCA. The occlusion was maintained prior to withdrawing the filament after […], the ECA- arteriotomy was ligated and the reperfusion was allowed following suture withdrawal. The sham-operated group underwent similar procedures without occlusion, and mice recovered as above.
TTC is a white powder and the solution remains colorless, which is reduced to red 1,3,5-triphenylformazan (TPF) by the enzymatic action of various dehydrogenases primarily mitochondrial dehydrogenase from the living tissues, while the core remains as white. Therefore, larger white area indicates higher injury and infarction volume. After performing ATT, mice were overdosed and deeply anesthetized with high isofluorane (5%). Brains were very quickly perfused with cold 25 ml of 0.01 M phosphate-buffered saline (PBS), harvested fresh and immediately placed in a metallic mouse brain matrix. Looking at the infarcted area, 5 blades were placed in alternate gaps to cut and obtain […] coronal slices. Sections were individually placed in a 35-mm dish containing pre-warmed (37° C.) 3-ml of 5% TTC in PBS (Sigma) for 20-25 minutes at 37° C., followed by 2× washing with cold PBS and fixation with 10% formalin. In order to image, fixed sections were taken out of the dish and placed in order on a high-resolution Cannon Scanner. After scanning, images were cropped and saved for analysis. Corrected infarct volume was estimated using gray scale image and Scion Image software and presented as the Corrected % infarct volume normalized to the uninjured side.
Diabetes was induced in adult male mice (14±1 weeks of age) as confirmed after 7 days of STZ-injection, followed by tMCAo stroke surgery at 3 weeks post-STZ injection. Stroke was induced with 60-min suture occlusion followed by reperfusion with suture withdrawal. GRI therapy or vehicle was IV-infused 10-min prior to reperfusion and RIC therapy/ RIC-mock was performed 1 h after reperfusion. […] PbtO2 was measured at 6h post-reperfusion (N=6/gp) using a 50-um thick oxygen sensor integrated to an UniAmp multi-channel system (Unisense, Denmark). Measurement signal was averaged for 3 min during a period of stable output as shown in the representative real-time electrogram traces in FIGS. 9A-9D. FIG. 9A is representative of a mouse treated with vehicle and receiving mock RIC. FIG. 9B is representative of a mouse receiving vehicle and RIC therapy. FIG. 9C is representative of a mouse receiving GRI therapy and mock RIC. FIG. 9D is representative of a mouse receiving GRI therapy and RIC therapy.
Diabetic adult male mice (as described in Example 4) were subjected to tMCAo (N=10/gp) with or without GRI and/or RIC-therapies and outcome measures were performed at 24h post-stroke.

[2] = tested on: iNOS, iCAM-1, IL-1β, IL-6 expression; experiment: Brain inflammatory gene expression (RT-PCR) after tMCAo in STZ-induced diabetic mice; type: in vivo
Protocol: Mice were immediately sacrificed after PbtO2 measurement and brain tissue samples were analyzed for inflammatory gene expression (N=6/gp). RT-PCR primers shown in Table 1 were used to measure changes in expression of iNOS (FIG. 11A), iCAM-1 (FIG. 11B), IL-1(3 (FIG. 11C) and IL-6 (FIG. 11D). The result for each inflammatory gene was normalized to expression of β-actin and expressed as a fold change.

ischemia/reperfusion = settings: 5 mg/kg at 2 hr post ischemia/reperfusion, daily for 3 days or 2 weeks; cited from earlier work
GSNOR = biological target: T1, GSNOR (Mus musculus, UniProt P28474); experiment: Plasma GSNOR activity (GSNO-dependent NADH consumption) after PT-stroke in aged female mice; type: in vivo; settings: 2.5 mg/kg after PT-stroke, P<0.01
T1 construct: Plasma was isolated from freshly drawn blood after cardiac puncture under deep isoflurane anesthesia; from tissue; host or cells: plasma of aged female C57/B6-background mice after PT-stroke
T1 sequence (P28474 whole entry): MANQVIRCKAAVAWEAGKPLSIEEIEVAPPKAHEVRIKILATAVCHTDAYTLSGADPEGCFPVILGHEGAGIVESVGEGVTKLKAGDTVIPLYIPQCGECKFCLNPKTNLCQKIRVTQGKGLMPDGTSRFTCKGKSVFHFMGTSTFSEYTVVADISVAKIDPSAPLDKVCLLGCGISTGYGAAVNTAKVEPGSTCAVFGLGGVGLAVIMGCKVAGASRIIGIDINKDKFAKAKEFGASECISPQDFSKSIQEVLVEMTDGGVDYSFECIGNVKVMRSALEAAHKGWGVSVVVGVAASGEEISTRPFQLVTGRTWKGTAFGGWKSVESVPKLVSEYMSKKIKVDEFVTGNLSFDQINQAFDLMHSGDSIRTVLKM
Protocol: Plasma was isolated from freshly drawn blood after cardiac puncture under deep isoflurane anesthesia, and mice were sacrificed to collect brain tissue. Plasma and brain tissue samples were snap-frozen until assay.
A method of GSNO dependent NADH consumption was used to determine GSNOR activity as reported. Briefly, brain tissue was homogenized in a buffer containing 50mM Tris-HCl (pH 8.0), 150 mM NaCl, 1-mM EDTA, 0.1% Triton X-100 and 1:100 protease inhibitor cocktail and centrifuged (10, 000 g×10 minutes at 4° C.) to obtain supernatant. […] The consumption of NADH was monitored with fluorescence spectrophotometry at an excitation wavelength of 340 nm and emission at 460 nm. GSNOR activity was calculated by subtracting the rate of NADH consumption incubated in the presence of GSNO minus the rate of NADH consumption without GSNO in samples.
A sex difference was found in the basal level of plasma GSNOR activity, showing higher GSNOR activity in female mice compared to age-matched males (P<0.05; N=6/gp) as shown in FIG. 3A. […] Statistical significance was determined at P<0.05 and were indicated with asterisks or different letters indicating statistically different Means.

[3] = low-dose GRI combined with RIC therapy, vs all other 3 groups

SMILES: Cc1cc(C(N)=O)ccc1-n1c(CCC(=O)O)ccc1-c1ccc(-n2ccnc2)cc1 [GRI therapy, N6022]
- brain tissue oxygenation (PbtO2) ([1]; GRI IV 10 min prior to reperfusion followed by RIC therapy 1 h after reperfusion): showed enhanced efficacy of both, GRI and RIC-therapies, in improving benefits of reperfusion to increase PbtO2
- brain tissue oxygenation (PbtO2) ([1]; GRI alone (RIC-mock), IV 10 min prior to reperfusion, vs vehicle RIC-mock): improved PbtO2 significantly
- % infarct volume ([1]; GRI singly (RIC-mock), N=10/gp): did not improve
- % swelling ([1]; GRI singly (RIC-mock), N=10/gp): did not improve
- mean NDS ([1]; GRI singly (RIC-mock), N=10/gp): did not improve
- % infarct volume [1, 3]: significantly improved
- % swelling [1, 3]: significantly improved
- mean NDS [1, 3]: significantly improved
- inflammatory gene expression in brain (fold change, normalized to β-actin) ([2]; GRI alone vs vehicle-treated stroke group, after PbtO2 measurement at 6 h post-reperfusion): showed a trend only to downregulate most inflammatory genes and were not significantly different from the vehicle-treated stroke group
- inflammatory gene expression in brain (fold change, normalized to β-actin) ([2]; GRI prior to RIC therapy vs RIC therapy alone): significantly downregulated and prevented RIC-induced inflammatory responses
- Neurological score, survival rate and motor/cognitive skills (ischemia/reperfusion): improved
- post-stroke plasma GSNOR activity (GSNOR): significantly inhibited the post-stroke plasma GSNOR activity
